Source: ChEMBL document CHEMBL4507276 (2021)

Tests used:
[1] = target: Tyrosine-protein kinase ABL1 (Homo sapiens) (UniProt P00519); details: Compound concentration 1000.0 nM
[2] = target: Cannabinoid receptor 1 (Homo sapiens) (UniProt P21554); experiment: CB1/CENTR/H Cerep selectivity data (BI); details: Compound concentration 20.0 uM
[3] = target: Epidermal growth factor receptor (Homo sapiens) (UniProt P00533); experiment: EGF/HU Eurofins-Panlabs selectivity data (BI); details: Compound concentration 10.0 uM
[4] = target: Muscarinic acetylcholine receptor M3 (Homo sapiens) (UniProt P20309); experiment: M3/HU Eurofins-Panlabs selectivity data (BI); details: Compound concentration 10.0 uM
[5] = target: T1, Muscarinic acetylcholine receptor M1 (Homo sapiens) (UniProt P11229); experiment: M1/H Cerep selectivity data (BI); details: Compound concentration 20.0 uM
T1 sequence (whole entry): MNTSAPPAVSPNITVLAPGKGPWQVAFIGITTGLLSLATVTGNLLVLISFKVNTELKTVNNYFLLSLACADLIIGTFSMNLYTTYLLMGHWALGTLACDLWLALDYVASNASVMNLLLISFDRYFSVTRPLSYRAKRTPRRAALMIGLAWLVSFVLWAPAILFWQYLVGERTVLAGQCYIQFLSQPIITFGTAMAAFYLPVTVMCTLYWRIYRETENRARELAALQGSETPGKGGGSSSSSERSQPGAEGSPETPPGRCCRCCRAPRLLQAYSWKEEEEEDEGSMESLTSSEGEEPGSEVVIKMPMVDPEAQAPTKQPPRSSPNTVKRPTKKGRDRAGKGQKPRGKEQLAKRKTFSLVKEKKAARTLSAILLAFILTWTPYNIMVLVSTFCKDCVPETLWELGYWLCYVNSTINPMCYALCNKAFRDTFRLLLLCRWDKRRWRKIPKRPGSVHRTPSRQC

[6] = target: T2, Muscarinic acetylcholine receptor M2 (Homo sapiens) (UniProt P08172); experiment: M2/H Cerep selectivity data (BI); details: filed as antagonist, Compound concentration 20.0 uM
T2 sequence (whole entry): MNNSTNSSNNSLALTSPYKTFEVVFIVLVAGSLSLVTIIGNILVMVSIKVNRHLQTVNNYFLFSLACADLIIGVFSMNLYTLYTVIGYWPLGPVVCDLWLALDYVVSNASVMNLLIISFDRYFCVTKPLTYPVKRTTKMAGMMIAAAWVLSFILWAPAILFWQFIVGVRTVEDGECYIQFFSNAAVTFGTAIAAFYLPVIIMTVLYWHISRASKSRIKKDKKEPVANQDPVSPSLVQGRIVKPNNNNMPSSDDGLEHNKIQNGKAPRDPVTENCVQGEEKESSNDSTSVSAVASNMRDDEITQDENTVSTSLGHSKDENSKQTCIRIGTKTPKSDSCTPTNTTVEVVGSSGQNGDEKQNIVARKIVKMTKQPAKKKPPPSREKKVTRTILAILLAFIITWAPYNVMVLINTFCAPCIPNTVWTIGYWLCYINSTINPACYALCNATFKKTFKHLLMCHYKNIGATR

[7] = target: DNA-dependent protein kinase catalytic subunit (Homo sapiens) (UniProt P78527); experiment: DNA-PK Invitrogen selectivity data (BI); details: Compound concentration 3.0 uM
[8] = target: Adenosine receptor A3 (Homo sapiens) (UniProt P0DMS8); experiment: A3/H Cerep selectivity data (BI); details: Compound concentration 20.0 uM
[9] = test system: Tyrosine-protein kinase JAK2 (Homo sapiens), O60674 [V617F]; experiment: JAK2 V617F Invitrogen selectivity data (BI); details: Compound concentration 3.0 uM
[10] = target: Ribosomal protein S6 kinase alpha-3 (Homo sapiens) (UniProt P51812); experiment: RPS6KA3 Invitrogen selectivity data (BI); details: Compound concentration 3.0 uM
[11] = target: T3, Testis-specific serine/threonine-protein kinase 3 (Homo sapiens) (UniProt Q96PN8); experiment: STK22D Invitrogen selectivity data (BI); details: Compound concentration 3.0 uM
T3 sequence (whole entry): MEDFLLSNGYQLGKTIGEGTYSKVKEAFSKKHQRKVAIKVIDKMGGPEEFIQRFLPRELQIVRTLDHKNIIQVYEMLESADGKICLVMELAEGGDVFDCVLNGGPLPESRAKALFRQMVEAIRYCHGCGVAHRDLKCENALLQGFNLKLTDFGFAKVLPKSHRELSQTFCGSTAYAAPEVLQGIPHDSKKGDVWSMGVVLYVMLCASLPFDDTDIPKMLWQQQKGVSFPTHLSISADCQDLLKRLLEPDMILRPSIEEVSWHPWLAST

[12] = target: Non-receptor tyrosine-protein kinase TYK2 (Homo sapiens) (UniProt P29597); experiment: TYK2 Invitrogen selectivity data (BI); details: Compound concentration 3.0 uM
[13] = target: T4, Muscarinic acetylcholine receptor M4 (Homo sapiens) (UniProt P08173); experiment: M4/H Cerep selectivity data (BI); details: Compound concentration 20.0 uM
T4 sequence (whole entry): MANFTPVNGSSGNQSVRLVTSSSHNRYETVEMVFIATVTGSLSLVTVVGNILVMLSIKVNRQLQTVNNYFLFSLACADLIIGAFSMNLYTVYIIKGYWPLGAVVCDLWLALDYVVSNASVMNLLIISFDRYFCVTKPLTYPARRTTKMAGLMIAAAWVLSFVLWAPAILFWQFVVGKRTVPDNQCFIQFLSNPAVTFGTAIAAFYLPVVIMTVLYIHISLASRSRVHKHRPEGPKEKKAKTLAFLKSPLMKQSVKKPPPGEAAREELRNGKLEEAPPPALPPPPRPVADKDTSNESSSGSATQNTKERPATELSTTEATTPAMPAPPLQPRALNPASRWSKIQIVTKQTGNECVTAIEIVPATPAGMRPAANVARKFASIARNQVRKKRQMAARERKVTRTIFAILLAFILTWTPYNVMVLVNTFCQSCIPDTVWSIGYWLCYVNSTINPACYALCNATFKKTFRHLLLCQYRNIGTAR

[14] = target: Fibroblast growth factor receptor 1 (Homo sapiens) (UniProt P11362); experiment: FGFR1 Invitrogen selectivity data (BI); details: Compound concentration 3.0 uM
[15] = target: Glucocorticoid receptor (Homo sapiens) (UniProt P04150); experiment: GCORTICOID/H Cerep selectivity data (BI); details: Compound concentration 20.0 uM
[16] = target: Tyrosine-protein kinase FRK (Homo sapiens) (UniProt P42685); experiment: FRK Invitrogen selectivity data (BI); details: Compound concentration 3.0 uM
[17] = target: 5-hydroxytryptamine receptor 1B (Rattus norvegicus) (UniProt P28564); experiment: 5HT1B/R Cerep selectivity data (BI); details: Compound concentration 20.0 uM
[18] = target: Protein kinase C eta type (Homo sapiens) (UniProt P24723); experiment: PRKCH Invitrogen selectivity data (BI); details: Compound concentration 3.0 uM
[19] = target: P2X purinoceptor (Oryctolagus cuniculus) (UniProt G1U3D6); experiment: P2X/RB Eurofins-Panlabs selectivity data (BI); details: Compound concentration 10.0 uM
[20] = target: Delta-type opioid receptor (Homo sapiens) (UniProt P41143); experiment: DELTA/HU Eurofins-Panlabs selectivity data (BI); details: Compound concentration 10.0 uM
[21] = target: Sodium-dependent serotonin transporter (Homo sapiens) (UniProt P31645); experiment: 5HTTRANS/H Cerep selectivity data (BI); details: Compound concentration 20.0 uM
[22] = target: Proto-oncogene tyrosine-protein kinase Src (Homo sapiens) (UniProt P12931); experiment: SRC Invitrogen selectivity data (BI); details: Compound concentration 3.0 uM
[23] = target: Serine/threonine-protein kinase PAK 5 (Homo sapiens) (UniProt Q9P286); experiment: PAK7 Invitrogen selectivity data (BI); details: Compound concentration 3.0 uM

Measured: residual activity

Sequence of Glucocorticoid receptor (Homo sapiens) (P04150 whole entry): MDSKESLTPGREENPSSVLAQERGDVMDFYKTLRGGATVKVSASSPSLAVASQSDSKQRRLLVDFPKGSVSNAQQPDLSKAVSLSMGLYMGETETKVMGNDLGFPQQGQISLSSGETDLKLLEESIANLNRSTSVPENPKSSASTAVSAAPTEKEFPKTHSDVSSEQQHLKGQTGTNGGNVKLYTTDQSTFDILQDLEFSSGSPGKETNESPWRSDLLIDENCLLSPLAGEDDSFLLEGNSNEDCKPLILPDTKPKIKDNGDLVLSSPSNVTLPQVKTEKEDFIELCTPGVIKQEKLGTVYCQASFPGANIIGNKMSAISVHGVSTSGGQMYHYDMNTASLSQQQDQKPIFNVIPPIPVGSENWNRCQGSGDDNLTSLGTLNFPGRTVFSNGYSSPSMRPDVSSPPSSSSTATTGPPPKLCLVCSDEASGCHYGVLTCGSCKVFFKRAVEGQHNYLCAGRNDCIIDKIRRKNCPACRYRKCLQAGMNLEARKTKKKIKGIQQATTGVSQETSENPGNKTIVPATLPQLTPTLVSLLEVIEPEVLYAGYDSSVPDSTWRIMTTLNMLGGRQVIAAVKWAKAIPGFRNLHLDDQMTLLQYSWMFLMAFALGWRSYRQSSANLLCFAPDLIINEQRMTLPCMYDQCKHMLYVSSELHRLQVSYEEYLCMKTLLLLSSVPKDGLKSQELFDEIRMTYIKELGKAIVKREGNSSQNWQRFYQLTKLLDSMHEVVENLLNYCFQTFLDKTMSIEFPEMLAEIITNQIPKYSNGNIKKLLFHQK
Sequence of Ribosomal protein S6 kinase alpha-3 (Homo sapiens) (P51812 whole entry): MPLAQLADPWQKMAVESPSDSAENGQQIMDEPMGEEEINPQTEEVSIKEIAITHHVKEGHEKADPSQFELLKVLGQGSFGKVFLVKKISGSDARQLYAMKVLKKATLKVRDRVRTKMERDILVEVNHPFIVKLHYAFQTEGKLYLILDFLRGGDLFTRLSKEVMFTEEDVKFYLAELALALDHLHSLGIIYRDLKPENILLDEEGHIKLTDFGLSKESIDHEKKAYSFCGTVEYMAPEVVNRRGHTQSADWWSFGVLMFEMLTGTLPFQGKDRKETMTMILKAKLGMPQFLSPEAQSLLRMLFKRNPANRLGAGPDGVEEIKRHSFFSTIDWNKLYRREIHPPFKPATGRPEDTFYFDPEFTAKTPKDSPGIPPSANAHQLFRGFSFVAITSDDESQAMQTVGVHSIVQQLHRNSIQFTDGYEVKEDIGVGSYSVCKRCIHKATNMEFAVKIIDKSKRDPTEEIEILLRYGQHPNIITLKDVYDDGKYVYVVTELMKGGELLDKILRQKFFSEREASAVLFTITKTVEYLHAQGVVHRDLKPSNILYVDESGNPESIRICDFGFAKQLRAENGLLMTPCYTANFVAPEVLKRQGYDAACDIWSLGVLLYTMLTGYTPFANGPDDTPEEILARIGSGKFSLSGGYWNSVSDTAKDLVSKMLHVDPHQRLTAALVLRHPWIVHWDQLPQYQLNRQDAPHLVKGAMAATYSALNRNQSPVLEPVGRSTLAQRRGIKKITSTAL
Sequence of Tyrosine-protein kinase FRK (Homo sapiens) (P42685 whole entry): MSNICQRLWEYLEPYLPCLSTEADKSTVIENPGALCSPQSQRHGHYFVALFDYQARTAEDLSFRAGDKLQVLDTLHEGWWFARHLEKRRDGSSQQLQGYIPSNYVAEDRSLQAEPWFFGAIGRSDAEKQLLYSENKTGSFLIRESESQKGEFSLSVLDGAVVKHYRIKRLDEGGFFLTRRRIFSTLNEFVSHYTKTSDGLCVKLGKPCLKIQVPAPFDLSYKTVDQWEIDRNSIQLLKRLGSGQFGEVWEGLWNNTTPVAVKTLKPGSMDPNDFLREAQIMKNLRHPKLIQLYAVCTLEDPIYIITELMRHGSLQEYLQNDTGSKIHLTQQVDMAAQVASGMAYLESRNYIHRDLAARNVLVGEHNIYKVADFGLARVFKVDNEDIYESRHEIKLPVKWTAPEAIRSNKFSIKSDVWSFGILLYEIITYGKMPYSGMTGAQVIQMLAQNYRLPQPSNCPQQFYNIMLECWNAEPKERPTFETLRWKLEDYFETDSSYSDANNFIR
Sequence of Delta-type opioid receptor (Homo sapiens) (P41143 whole entry): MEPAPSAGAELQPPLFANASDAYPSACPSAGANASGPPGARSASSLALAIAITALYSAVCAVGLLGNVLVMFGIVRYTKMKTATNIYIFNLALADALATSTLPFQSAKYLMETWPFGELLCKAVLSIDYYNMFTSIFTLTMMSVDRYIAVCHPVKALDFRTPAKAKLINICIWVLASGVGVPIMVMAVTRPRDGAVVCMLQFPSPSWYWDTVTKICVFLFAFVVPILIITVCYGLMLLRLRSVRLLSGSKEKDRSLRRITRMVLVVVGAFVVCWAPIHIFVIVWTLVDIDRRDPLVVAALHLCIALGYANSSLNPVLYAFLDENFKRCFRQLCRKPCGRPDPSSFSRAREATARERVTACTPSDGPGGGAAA
Sequence of Tyrosine-protein kinase ABL1 (Homo sapiens) (P00519 whole entry): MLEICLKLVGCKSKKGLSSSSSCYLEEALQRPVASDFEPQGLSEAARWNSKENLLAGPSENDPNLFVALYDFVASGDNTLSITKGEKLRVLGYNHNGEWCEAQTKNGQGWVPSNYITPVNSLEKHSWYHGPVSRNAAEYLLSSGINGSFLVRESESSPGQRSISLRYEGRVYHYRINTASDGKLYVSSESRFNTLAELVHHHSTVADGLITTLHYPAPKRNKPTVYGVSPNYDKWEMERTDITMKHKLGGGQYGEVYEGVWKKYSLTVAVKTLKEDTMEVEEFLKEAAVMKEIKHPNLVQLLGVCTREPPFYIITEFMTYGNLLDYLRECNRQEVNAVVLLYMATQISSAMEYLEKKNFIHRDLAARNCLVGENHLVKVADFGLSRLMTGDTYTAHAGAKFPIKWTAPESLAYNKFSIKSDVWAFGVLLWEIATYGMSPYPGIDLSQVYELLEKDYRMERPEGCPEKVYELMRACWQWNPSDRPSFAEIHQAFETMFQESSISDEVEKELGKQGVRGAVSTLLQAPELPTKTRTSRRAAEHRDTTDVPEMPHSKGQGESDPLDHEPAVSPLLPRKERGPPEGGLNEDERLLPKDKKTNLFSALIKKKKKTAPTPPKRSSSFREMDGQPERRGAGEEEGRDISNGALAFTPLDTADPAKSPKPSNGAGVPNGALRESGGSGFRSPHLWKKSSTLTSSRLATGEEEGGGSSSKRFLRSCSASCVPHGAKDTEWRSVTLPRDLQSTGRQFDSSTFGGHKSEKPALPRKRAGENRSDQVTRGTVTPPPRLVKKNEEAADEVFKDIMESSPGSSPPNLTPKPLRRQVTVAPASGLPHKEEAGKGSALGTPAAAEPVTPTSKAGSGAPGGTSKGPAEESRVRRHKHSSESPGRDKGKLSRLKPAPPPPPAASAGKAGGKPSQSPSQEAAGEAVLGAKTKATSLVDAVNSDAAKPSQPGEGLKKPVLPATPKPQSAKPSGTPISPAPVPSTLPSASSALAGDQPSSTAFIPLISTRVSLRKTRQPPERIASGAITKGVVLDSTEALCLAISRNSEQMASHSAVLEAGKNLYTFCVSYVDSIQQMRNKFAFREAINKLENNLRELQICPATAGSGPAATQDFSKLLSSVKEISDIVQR
Sequence of Muscarinic acetylcholine receptor M3 (Homo sapiens) (P20309 whole entry, looked up): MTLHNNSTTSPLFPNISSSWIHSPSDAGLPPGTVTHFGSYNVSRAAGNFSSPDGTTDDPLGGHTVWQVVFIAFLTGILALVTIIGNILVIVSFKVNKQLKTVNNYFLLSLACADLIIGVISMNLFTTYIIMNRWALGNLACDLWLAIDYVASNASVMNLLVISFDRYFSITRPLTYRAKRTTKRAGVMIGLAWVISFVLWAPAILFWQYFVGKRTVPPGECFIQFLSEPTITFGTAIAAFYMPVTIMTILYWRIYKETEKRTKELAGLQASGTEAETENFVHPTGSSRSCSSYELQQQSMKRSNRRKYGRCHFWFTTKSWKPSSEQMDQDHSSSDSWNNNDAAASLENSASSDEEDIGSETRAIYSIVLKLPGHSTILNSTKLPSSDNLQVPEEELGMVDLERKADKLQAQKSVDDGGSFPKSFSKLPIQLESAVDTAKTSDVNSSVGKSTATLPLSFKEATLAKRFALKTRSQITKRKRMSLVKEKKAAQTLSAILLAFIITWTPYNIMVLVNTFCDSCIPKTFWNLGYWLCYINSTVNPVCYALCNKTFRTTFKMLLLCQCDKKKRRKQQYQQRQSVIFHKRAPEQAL
Sequence of 5-hydroxytryptamine receptor 1B (Rattus norvegicus) (P28564 whole entry): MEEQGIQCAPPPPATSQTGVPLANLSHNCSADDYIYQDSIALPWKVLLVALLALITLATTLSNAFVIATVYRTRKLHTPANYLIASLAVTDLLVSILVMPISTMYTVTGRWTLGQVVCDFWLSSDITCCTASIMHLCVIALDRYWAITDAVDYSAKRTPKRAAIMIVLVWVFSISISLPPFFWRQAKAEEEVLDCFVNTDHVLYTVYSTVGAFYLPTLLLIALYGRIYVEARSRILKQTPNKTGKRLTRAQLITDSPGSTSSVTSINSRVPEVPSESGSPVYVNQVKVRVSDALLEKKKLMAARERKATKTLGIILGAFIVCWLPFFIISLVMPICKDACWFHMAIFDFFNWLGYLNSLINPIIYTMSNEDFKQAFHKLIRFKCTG
Sequence of P2X purinoceptor (Oryctolagus cuniculus) (G1U3D6 as listed by the source): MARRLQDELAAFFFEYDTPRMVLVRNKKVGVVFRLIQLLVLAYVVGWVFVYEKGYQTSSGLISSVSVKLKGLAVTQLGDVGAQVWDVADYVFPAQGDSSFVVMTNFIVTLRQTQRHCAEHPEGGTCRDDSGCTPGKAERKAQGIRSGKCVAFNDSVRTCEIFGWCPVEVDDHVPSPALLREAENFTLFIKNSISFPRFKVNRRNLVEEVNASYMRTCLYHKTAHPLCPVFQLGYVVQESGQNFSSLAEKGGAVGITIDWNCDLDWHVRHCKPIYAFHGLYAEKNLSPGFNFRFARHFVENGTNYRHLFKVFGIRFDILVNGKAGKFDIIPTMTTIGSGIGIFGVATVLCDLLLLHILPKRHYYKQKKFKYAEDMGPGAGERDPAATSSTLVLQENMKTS

CN(C)C(=O)Cn1cc(-c2nc(C3(c4ccc(-c5cnc(N)nc5)cc4)CC3)no2)cn1 [BI 0153]
inactive: [1] 100%

CN(C)C(=O)Cn1cc(-c2nc([C@@](C)(c3ccc(-c4cnc(N)nc4)cc3)C3CC3)no2)cn1 [BI 665915]
inactive: [2] 88% | [3] 103% | [4] 105% | [5] 99% | [6] 98% | [7] 91% | [8] 64% | [9] 96% | [10] 105% | [11] 96.5% | [12] 97.5% | [13] 103% | [14] 100% | [15] 96% | [16] 94.5% | [17] 141% | [18] 86% | [19] 111% | [20] 96% | [21] 103% | [22] 90.5% | [23] 97%
